Results taken from US20250257034A1, “INDOLE DERIVATIVES AS SEROTONERGIC AGENTS USEFUL FOR THE TREATMENT OF DISORDERS RELATED THERETO” (priority 2023, published 2025).
pEC50: −log10 of the molar value. Where two headings read alike, the source gives them in different places.

Biological target: T1, human 5-HT1A receptor (Homo sapiens, UniProt P08908)
T1 sequence (P08908 1-422): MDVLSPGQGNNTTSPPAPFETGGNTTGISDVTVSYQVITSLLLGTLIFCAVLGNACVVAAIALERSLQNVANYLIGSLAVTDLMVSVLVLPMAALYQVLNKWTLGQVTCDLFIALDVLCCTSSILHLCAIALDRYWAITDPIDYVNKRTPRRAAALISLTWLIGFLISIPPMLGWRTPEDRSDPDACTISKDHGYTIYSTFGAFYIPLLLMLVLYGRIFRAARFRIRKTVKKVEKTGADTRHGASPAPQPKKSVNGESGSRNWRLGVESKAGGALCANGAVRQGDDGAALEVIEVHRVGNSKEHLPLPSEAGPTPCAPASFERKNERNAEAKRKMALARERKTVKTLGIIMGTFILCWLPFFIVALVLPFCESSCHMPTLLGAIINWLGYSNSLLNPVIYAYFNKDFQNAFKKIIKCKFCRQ
Assay: Human 5-HT1A functional FLIPR assay (agonist mode)
Format: cell-based
Set-up: expressed in transfected cells; host or cells: HTR1A&Gα15-CHO
Method: The potential excitatory effects of compounds targeting on 5-hydroxytryptamine receptor 1A (5-HT1A) under agonist mode was assessed.
HTR1A&Gα15-CH0 cells were cultured in DMEM/F12 medium containing 10% dialyzed FBS, 1×penicillin-streptomycin and 600 μg/mL Hygromycin B. The cells were passaged about three times a week, maintained between ˜30% to ˜90% confluence.
1. The cell culture medium (DMEM/F12 medium containing 10% dialyzed FBS, 1×penicillin-streptomycin and 600 μg/mL Hygromycin B), TrypLE™ Express and DPBS was warmed to R.T. in advance.
2. The cell culture medium was removed from flask. Washed cells with DPBS.
3. 1 mL TrypLE™ Express was added to the flask, mixed well by gentle shaking and cells were incubated at 37° C. for a few minutes.
4. The cells were checked for morphological change under microscope, the digestion was stopped by adding 2 mL cell culture medium to the flask when most of cells turned to round.
5. The cell suspension was transferred into a 15 mL centrifuge tube, and then centrifuged at 1,200 rpm for 5 minutes.
6. The supernatant was removed. The cell pellets were resuspended with 2 mL cell culture medium.
7. The cell density was counted using a cell counter.
8. Cells were diluted to 4×10^5/mL with cell culture medium.
9. 30 μL/well cell suspensions were added into a 384-well cell plate (the cell density was 12,000 cells/well).
10. The cell plate was incubated overnight at 37° C., 5% (v/v) CO2.
1. On the day of experiments, culture medium was removed from the cell plate.
2. 10 μL of assay buffer (20 mM HEPES, in 1x HBSS, pH 7.4) was added to each well of the cell plate.
3. 2×dye solution was prepared following the manufacturer's instruction of the FLIPR® Calcium 6 assay kit: • i. The dye was diluted with assay buffer. • ii. probenecid was added to the final concentration of 5 mM. • iii. Vortexed vigorously for I-2 minutes, adjust pH to 7.4.
4. 10 μL of 2×dye solution was added to each well of the cell plate.
5. The cell plate was placed on plate shaker, followed by shaking at 600 rpm for 2 minutes.
6. The plate was incubated at 37° C. for 2 hours followed by an additional 15-minute incubation at 25° C.
1. Serotonin was prepared to the concentration of 10 mM with DMSO, 3-folds serial dilutions were performed with DMSO.
2. Prepared the test compound to the concentration of 10 mM with DMSO, preform 3-folds serial dilutions with DMSO.
3. The compounds were added to a 384-well compound source plate.
4. 90 nL/well of serial diluted compounds were transferred from source plate to a 384-well compound plate by using an Echo.
5. 30 μL/well of assay buffer was added to the compound plate.
6. The plate was mixed on-plate shaker for 2 minutes.
1. After the cells incubated with dye solution, the cell plate, compound plate containing 3×compounds and F LIP R tips were placed into F LIP R.
2. 10 μL of 3×compounds were transferred from the compound plate to the cell plate by F LIP R.
3. The plate was read for 160 sec with 1 sec interval to obtain the data of agonist mode.
1. The normalized fluorescence reading (RFU) was calculated as shown below, wherein Fmax and Fmin stand for maximum and minimum of calcium signal during defined time window:
2. EC50 was calculated by fitting RFU against log of compound concentrations with Hill equation using XLfit.
HTR1A&Gα15-C H0 cells were cultured in DMEM/F 12 medium containing 10% dialyzed FBS, 1x penicillin-streptomycin and 600 μg/mL Hygromycin B. The cells were passaged about three times a week, maintained between ˜30% to ˜90% confluence.
1. The cell culture medium (DMEM/F 12 medium containing 10% dialyzed FBS, 1x penicillin-streptomycin and 600 μg/mL Hygromycin B), TrypLE™ Express and DPBS was warmed to R.T. in advance.
7. The cell density was counted using cell counter.
9. 30 μL/well cell suspensions were added into a 384-well cell plate (The cell density was 12,000 cells/well).
3. 2×dye solution was prepared following the manufacture's instruction of the F LIP R® Calcium 6 assay kit: • i.

SMILES: CCN(CC)CCc1c[nH]c2ccc(SC)cc12 [Compound I-12, N,N-Diethyl-2-(5-(methylthio)-1H-indol-3-yl)ethan-1-amine]
- pEC50: 6.17
- RFU@10 μM (RFU=Fmax−Fmin (Table 18)): 3,735 RFU

SMILES: COc1ccc2[nH]cc(CCN3CC[C@@H](OC(F)F)C3)c2c1 [(R) I-67, (R)-3-(2-(3-(Difluoromethoxy)pyrrolidin-1-yl)ethyl)-5-methoxy-1H-indole]
- pEC50: 5.80
- RFU@10 μM (RFU=Fmax−Fmin (Table 47)): 3,988 RFU

SMILES: COc1ccc2[nH]cc(CCN(C)CCOC(F)F)c2c1 [Compound I-71, 2-(Difluoromethoxy)-N-(2-(5-methoxy-1H-indol-3-yl)ethyl)-N-methylethan-1-amine]
- RFU@10 μM (RFU=Fmax−Fmin (Table 47)): 3,087 RFU
- pEC50 (FLIPR calcium, agonist mode, HTR1A&Gα15-CHO cells (Table 47), read-out: h5-HT1A, EC50): 5.73

SMILES: CSc1ccc2[nH]cc(CCN(C(C)C)C(C)C)c2c1 [Compound I-17, N-Isopropyl-N-(2-(5-(methylthio)-1H-indol-3-yl)ethyl)propan-2-amine]
- pEC50: 5.47
- RFU@10 μM (RFU=Fmax−Fmin (Table 18)): 2,289 RFU

SMILES: CN(C)CCc1c[nH]c2ccccc12 [DMT]
- RFU@10 μM (RFU=Fmax−Fmin (Table 18)): 204 RFU
- RFU@10 μM (RFU=Fmax−Fmin (Table 47)): 204 RFU

SMILES: COc1ccc2[nH]cc(CCN3CC[C@H](OC(F)F)C3)c2c1 [(S) I-67, (S)-3-(2-(3-(Difluoromethoxy)pyrrolidin-1-yl)ethyl)-5-methoxy-1H-indole]
- pEC50: 6.73
- RFU@10 μM (RFU=Fmax−Fmin (Table 47)): 3,930 RFU

SMILES: CCN(C)CCc1c[nH]c2ccc(SC)cc12 [Compound I-13, N-Ethyl-N-methyl-2-(5-(methylthio)-1H-indol-3-yl)ethan-1-amine]
- pEC50: 6.16
- RFU@10 μM (RFU=Fmax−Fmin (Table 18)): 4,279 RFU

SMILES: CSc1ccc2[nH]cc(CCN(C)C(C)C)c2c1 [Compound I-19, N-Methyl-N-(2-(5-(methylthio)-1H-indol-3-yl)ethyl)propan-2-amine]
- pEC50: 5.41
- RFU@10 μM (RFU=Fmax−Fmin (Table 18)): 2,161 RFU

SMILES: CN(C)CCc1c[nH]c2ccc(OCCOC(F)F)cc12 [Compound I-128, 2-(5-(2-(Difluoromethoxy)ethoxy)-1H-indol-3-yl)-N,N-dimethylethan-1-amine]
- RFU@10 μM (RFU=Fmax−Fmin (Table 47)): 314 RFU

SMILES: COc1ccc2[nH]cc(CCN3CC[C@@H](OC)C3)c2c1 [(R) I-66, (R)-5-methoxy-3-(2-(3-methoxypyrrolidin-1-yl)ethyl)-1H-indole]
- pEC50: 6.01
- RFU@10 μM (RFU=Fmax−Fmin (Table 47)): 3,690 RFU

SMILES: CN(CCOC(F)F)CCc1c[nH]c2ccccc12 [Compound I-130, N-(2-(1H-Indol-3-yl)ethyl)-2-(difluoromethoxy)-N-methylethan-1-amine]
- RFU@10 μM (RFU=Fmax−Fmin (Table 47)): 163 RFU

SMILES: [2H]C([2H])([2H])N(CCc1c[nH]c2ccc(SC)cc12)C([2H])([2H])[2H] [Compound I-1, N,N-Bis(methyl-d3)-2-(5-(methylthio)-1H-indol-3-yl)ethan-1-amine]
- pEC50: 6.03
- RFU@10 μM (RFU=Fmax−Fmin (Table 18)): 2,858 RFU
